In assay [1] the target is T1, human SCD1 (Homo sapiens, UniProt O00767).
T1 construct: expressed in transfected cells; host or cells: yeast strain with OLE1 deleted, plasmid-borne human SCD1 (selected in SD-Ura)
T1 sequence (O00767 1-359): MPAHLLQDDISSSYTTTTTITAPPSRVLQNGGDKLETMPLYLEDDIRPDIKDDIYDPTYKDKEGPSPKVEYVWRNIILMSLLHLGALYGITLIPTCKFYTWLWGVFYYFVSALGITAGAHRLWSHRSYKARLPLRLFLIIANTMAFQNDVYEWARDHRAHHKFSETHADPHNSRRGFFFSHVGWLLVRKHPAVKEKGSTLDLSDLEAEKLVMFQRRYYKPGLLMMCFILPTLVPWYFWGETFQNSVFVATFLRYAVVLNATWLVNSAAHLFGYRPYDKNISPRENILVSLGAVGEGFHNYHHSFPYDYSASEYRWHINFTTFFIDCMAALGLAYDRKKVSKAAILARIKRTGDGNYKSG
The assay is described as follows: Growth inhibition of yeast strain expressing human SCD1 as sole desaturase (OLE1 deleted), OD600 readout. The class given is cell-based.

For assay [2], the target named is T2, human SCD5 (Homo sapiens, UniProt Q86SK9).
T2 construct: expressed in transfected cells; host or cells: yeast strain with OLE1 deleted, plasmid-borne human SCD5 (selected in SD-Ura)
T2 sequence (Q86SK9 1-330): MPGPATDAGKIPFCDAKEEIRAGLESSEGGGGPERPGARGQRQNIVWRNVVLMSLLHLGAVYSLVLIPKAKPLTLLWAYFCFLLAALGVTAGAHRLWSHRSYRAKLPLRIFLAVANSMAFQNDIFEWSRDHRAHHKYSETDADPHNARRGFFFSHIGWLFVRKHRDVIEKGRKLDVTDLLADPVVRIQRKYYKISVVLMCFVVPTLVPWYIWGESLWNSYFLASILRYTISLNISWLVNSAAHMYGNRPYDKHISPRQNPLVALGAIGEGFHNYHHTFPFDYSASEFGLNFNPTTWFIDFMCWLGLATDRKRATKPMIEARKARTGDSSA
As to the kind of experiment: Growth inhibition of yeast strain expressing human SCD5 as sole desaturase (OLE1 deleted), OD600 readout. It is filed as cell-based.

Where [3] appears, read: yeast strain expressing human SCD1 as sole desaturase, growth (OD600) after 40 h at 30° C., read-out: SCD1 IC50.
[4] abbreviates: yeast strain expressing human SCD5 as sole desaturase, growth (OD600) after 40 h at 30° C., read-out: SCD5 IC50.

Molecules are shown by their SMILES. Read-outs that look alike come from different tables or passages of the source.

By IC50 is commonly meant the midpoint of a concentration-inhibition curve. In the case of `Cn1nc(C(=O)Nc2ccc(Cc3cccc(C#N)c3F)cn2)ccc1=O` [Compound 614], the values for the IC50 in assay [1] (setting [3]) and in assay [2] (setting [4]) were > 45 µM and 2.5 µM, respectively.

For `Cn1ccc(C(=O)Nc2ccc(Cc3cc(F)cc(C#N)c3)cn2)n1` [Compound 96, N-(5-(3-cyano-5-fluorobenzyl)pyridin-2-yl)-1-methyl-1H-pyrazole-3-carboxamide], the IC50 stood at 1.08 µM in assay [1] (setting [3]) and 0.13 µM in assay [2] (setting [4]).

Consider `O=C(Nc1ccc(Cc2cccc(F)c2)cn1)c1ccnc(C2CC2)n1` [Compound 506], for which the IC50 in assay [1] (setting [3]) was 1.5 µM; in assay [2] (setting [4]), 0.014 µM.

With `CN1N=C(C(=O)Nc2ccc(CN3CCC(C)(C)CC3)cn2)CCC1=O` [Compound 412], the IC50 in assay [1] (setting [3]) and in assay [2] (setting [4]) was > 45 µM each time.

Consider `CN1N=C(C(=O)Nc2ccc(/C=C/c3cccc(Cl)c3)nn2)CCC1=O` [Compound 288], for which the IC50 in assay [1] (setting [3]) is > 45 µM; in assay [2] (setting [4]), 2.52 µM.

In the case of `CN1N=C(C(=O)Nc2ncc(Cc3cccc(F)c3)s2)CCC1=O` [Compound 220], the figures for the IC50 in assay [1] (setting [3]) and in assay [2] (setting [4]) were 0.66 µM and 0.52 µM, respectively.

Regarding `CCn1ccc(C(=O)Nc2ccc(Cc3cc(F)cc(Cl)c3)cn2)n1` [Compound 99, N-(5-(3-chloro-5-fluorobenzyl)pyridin-2-yl)-1-ethyl-1H-pyrazole-3-carboxamide], the IC50 in assay [1] (setting [3]) came to 0.14 µM; in assay [2] (setting [4]), 0.01 µM.

As to `CN1N=C(C(=O)Nc2ncc(Cc3ccc4ccccc4n3)s2)CCC1=O` [Compound 390], the IC50 in assay [1] (setting [3]) and in assay [2] (setting [4]) was > 45 µM throughout.

As for `CN1N=C(C(=O)Oc2ccc(NCc3cc(F)cc(C#N)c3)nc2)CCC1=O` [Compound 269], the results for the IC50 in assay [1] (setting [3]) and in assay [2] (setting [4]) were > 45 µM and 0.03 µM, respectively.

With `O=C(Nc1ccc(Nc2cccc(Cl)c2)cn1)c1ccc(=O)n(C2CC2)n1` [Compound 303], the IC50 was 4.18 µM in assay [1] (setting [3]) and 0.97 µM in assay [2] (setting [4]).

Consider `Cn1cc(C(=O)Nc2ccc(C3CC3c3ccccc3)cn2)ccc1=O` (centres unmarked) [Compound 298], for which the IC50 in assay [1] (setting [3]) stood at 2.75 µM; in assay [2] (setting [4]) it was 0.34 µM.

On to `O=C(Nc1ccc(Cc2cccc(F)c2)cn1)c1csc(Br)n1` [Compound 632], for which the IC50 in assay [1] (setting [3]) is > 45 µM; in assay [2] (setting [4]), 0.07 µM.

As for `O=C(Nc1ccc(Cc2cccc(Cl)c2)cn1)c1cnc(Cl)c(F)c1` [Compound 319], the IC50 was > 45 µM in assay [1] (setting [3]) and 0.46 µM in assay [2] (setting [4]).

Turning to `Cn1cc(C(=O)Nc2ccc(Cc3ccc(Cl)cc3)cn2)ccc1=O` [Compound 64, N-(5-(4-chlorobenzyl)pyridin-2-yl)-1-methyl-6-oxo-1,6-dihydropyridine-3-carboxamide], the IC50 in assay [1] (SCD1 IC50) was determined as 0.56 µM; in assay [2] (SCD5 IC50) it was 0.06 µM.

Take `Cc1ccnc(Cc2ccc(NC(=O)C3=NN(C)C(=O)CC3)nc2)c1` [Compound 469]: the IC50 in assay [1] (setting [3]) and in assay [2] (setting [4]) was > 45 µM each time.

With `O=C(Nc1ccc(Cc2cccc(F)c2)cn1)c1coc(Cl)n1` [Compound 645], the values for the IC50 in assay [1] (setting [3]) and in assay [2] (setting [4]) were 1.3 µM and 0.21 µM, respectively.

`Cc1cc(C(=O)Nc2ccc(Cc3cccc(F)c3)cn2)nc(C)n1` [Compound 239]: the IC50 is 0.25 µM in assay [1] (setting [3]) and 0.01 µM in assay [2] (setting [4]).

For the molecule `Cn1cc(C(=O)Nc2ccc(Cc3ccc(F)cc3)cn2)ccc1=O` [Compound 53, N-(5-(4-fluorobenzyl)pyridin-2-yl)-1-methyl-6-oxo-1,6-dihydropyridine-3-carboxamide], the values for the IC50 in assay [1] (SCD1 IC50) and in assay [2] (SCD5 IC50) were 0.28 µM and 0.01 µM, respectively.

For `CN1N=C(C(=O)Nc2ccc(Cc3ccc(Cl)c(Cl)c3)nn2)CCC1=O` [Compound 188, N-(6-(3,4-dichlorobenzyl)pyridazin-3-yl)-1-methyl-6-oxo-1,4,5,6-tetrahydropyridazine-3-carboxamide], the figures for the IC50 in assay [1] (setting [3]) and in assay [2] (setting [4]) were 4.4 µM and 0.19 µM, respectively.

Take `Cn1cc(C(=O)Nc2ccc(CNc3cccc(Cl)c3)cn2)ccc1=O` [Compound 173, N-(5-((3-Chlorophenylamino)methyl)pyridin-2-yl)-1-methyl-6-oxo-1,6-dihydropyridine-3-carboxamide]: the IC50 in assay [1] (setting [3]) was 1.72 µM; in assay [2] (setting [4]) it was 0.15 µM.

In the case of `Cn1nc(C(=O)Nc2ccc(Cc3cc(C(F)(F)F)ccn3)cn2)ccc1=O` [Compound 278], the IC50 is 39.9 µM in assay [1] (setting [3]) and 2.03 µM in assay [2] (setting [4]).

For the molecule `Cn1nc(C(=O)Nc2ccc(Oc3cc(F)cc(F)c3)cn2)ccc1=O` [Compound 573], the figures for the IC50 in assay [1] (setting [3]) and in assay [2] (setting [4]) were > 45 µM and 2.3 µM, respectively.

Turning to `COC(=O)c1ccnc(C(=O)Nc2ccc(Cc3cccc(F)c3)cn2)c1` [Compound 570], the IC50 in assay [1] (setting [3]) came out at 10 µM; in assay [2] (setting [4]) it was 0.43 µM.

On to `Cn1cc(C(=O)Nc2ccc(COc3cccc(Cl)c3)nn2)ccc1=O` [Compound 259], for which the IC50 was 5.37 µM in assay [1] (setting [3]) and 0.57 µM in assay [2] (setting [4]).

`O=C(Nc1ccc(Cc2ccc(F)c(F)c2)cn1)c1cncc(CO)c1` [Compound 503]: the IC50 in assay [1] (setting [3]) is 0.012 µM; in assay [2] (setting [4]), 0.01 µM.

As to `Cn1cc(C(=O)Nc2ccc(Cc3cc(F)cc(F)c3)cn2)ncc1=O` [Compound 672], the IC50 in assay [1] (setting [3]) is 0.5 µM; in assay [2] (setting [4]), 0.42 µM.

`CN1N=C(C(=O)Nc2nnc(Cc3cccc(Cl)c3)[nH]2)CCC1=O` [Compound 407]: the IC50 in assay [1] (setting [3]) and in assay [2] (setting [4]) was > 45 µM each time.

For `CN1N=C(C(=O)Nc2ccc(OCc3cccc(Cl)c3)cn2)CCC1=O` [Compound 170, N-(5-(3-chlorobenzyloxy)pyridin-2-yl)-1-methyl-6-oxo-1,4,5,6-tetrahydropyridazine-3-carboxamide], the IC50 was > 45 µM in assay [1] (setting [3]) and 1.07 µM in assay [2] (setting [4]).

Take `Cn1cc(C(=O)Nc2ccc(N3CC(Oc4cccc(Cl)c4)C3)cn2)ccc1=O` [Compound 660]: the figures for the IC50 in assay [1] (setting [3]) and in assay [2] (setting [4]) were > 45 µM and 8.9 µM, respectively.

Take `Cn1nc(C(=O)Nc2ccc(Cc3cccc(F)c3)cn2)cc(Br)c1=O` [Compound 280]: the IC50 in assay [1] (setting [3]) is 0.13 µM; in assay [2] (setting [4]), 0.02 µM.

On to `Cn1cc(C(=O)Nc2ccc(C3(c4ccc(F)c(F)c4)CC3)cn2)ccc1=O` [Compound 647], for which the IC50 turned out to be 9.3 µM in assay [1] (setting [3]) and 2.4 µM in assay [2] (setting [4]).

For the molecule `Cn1cc(C(=O)Nc2ccc(Cc3cccc(F)c3F)cn2)ccc1=O` [Compound 552], the IC50 in assay [1] (setting [3]) was 1.9 µM; in assay [2] (setting [4]) it was 0.36 µM.

On to `Cn1nc(C(=O)Nc2ccc(COc3ccccc3Cl)cn2)ccc1=O` [Compound 615], for which the IC50 in assay [1] (setting [3]) is > 45 µM; in assay [2] (setting [4]), 0.079 µM.

On to `O=C(Nc1ccc(Cc2cccc(Cl)c2)cn1)c1ccn2cnnc2c1` [Compound 429], for which the IC50 in assay [1] (setting [3]) and in assay [2] (setting [4]) was > 45 µM in each case.

As for `Cn1nc(C(=O)Nc2ccc(Oc3cc(F)cc(Cl)c3)cn2)ccc1=O` [Compound 586], the IC50 in assay [1] (setting [3]) is > 45 µM; in assay [2] (setting [4]), 1.3 µM.

In the case of `Cn1c(C(=O)Nc2ccc(Cc3cccc(F)c3)cn2)coc1=O` [Compound 283], the values for the IC50 in assay [1] (setting [3]) and in assay [2] (setting [4]) were 2.96 µM and 0.27 µM, respectively.

Take `COc1cc(Cl)cc(Cc2ccc(NC(=O)c3ccc(=O)n(C)n3)nc2)c1` [Compound 282]: the IC50 in assay [1] (setting [3]) came out at 0.21 µM; in assay [2] (setting [4]), 0.02 µM.

As for `CN1N=C(C(=O)Nc2ccc(Cc3cc(Cl)cc(Cl)c3)cn2)CCC1=O` [Example 31], the values for the IC50 in assay [1] (setting [3]) and in assay [2] (setting [4]) were 6.28 µM and 0.05 µM, respectively.

Take `Cn1ccc(C(=O)Nc2ccc(Cc3ccc(F)c(F)c3)cn2)cc1=O` [Compound 515]: the values for the IC50 in assay [1] (setting [3]) and in assay [2] (setting [4]) were 5.9 µM and 0.32 µM, respectively.

As for `O=C(Nc1ccc(COc2cccc(Cl)c2)cn1)c1ccc(=O)n(C2CC2)c1` [Compound 291], the IC50 in assay [1] (setting [3]) was determined as 22.5 µM; in assay [2] (setting [4]), 4.91 µM.

`CN1N=C(C(=O)Nc2ncc(Cc3cccc(Cl)c3)s2)CCC1=O` [Compound 207, N-(5-(3-chlorobenzyl)thiazol-2-yl)-1-methyl-6-oxo-1,4,5,6-tetrahydropyridazine-3-carboxamide]: the figures for the IC50 in assay [1] (setting [3]) and in assay [2] (setting [4]) were 0.09 µM and 0.01 µM, respectively.

On to `Cc1nc(C(=O)Nc2ccc(Cc3cccc(F)c3)cn2)ccc1F` [Compound 448], for which the IC50 in assay [1] (setting [3]) and in assay [2] (setting [4]) was > 45 µM in each case.

Turning to `COc1cc(Cc2ccc(NC(=O)c3ccc(=O)n(C)c3)nc2)ccn1` [Compound 613], the values for the IC50 in assay [1] (setting [3]) and in assay [2] (setting [4]) were 3.4 µM and 0.6 µM, respectively.

For `CCn1cc(C(=O)Nc2ccc(Cc3cc(F)cc(OC)c3)cn2)ccc1=O` [Compound 78, 1-ethyl-N-(5-(3-fluoro-5-methoxybenzyl)pyridin-2-yl)-6-oxo-1,6-dihydropyridine-3-carboxamide], the IC50 in assay [1] (setting [3]) was > 45 µM; in assay [2] (setting [4]) it was 0.64 µM.

Consider `CC(O)c1ccc(C(=O)Nc2ccc(Cc3cccc(Cl)c3)cn2)nn1` (centres unmarked) [Compound 512], for which the IC50 turned out to be 0.049 µM in assay [1] (setting [3]) and 0.06 µM in assay [2] (setting [4]).

For `Cc1cc(C(=O)Nc2ccc(Cc3cccc(F)c3)cn2)cn(C)c1=O` [Compound 623], the IC50 in assay [1] (setting [3]) was found to be 0.232 µM; in assay [2] (setting [4]) it was 0.019 µM.

The values are drawn from patent publication US20230078764A1 (Yumanity Therapeutics, Inc., priority 2019, published 2023).
